Assay: molar heat capacity at constant pressure; xn = mol fraction of the nth substance listed
Conditions: 101.3 kPa, Liquid, Small sample (50 mg) DSC

CCC(C)(C)O [2-methylbutan-2-ol] + CCCCCCC
Conditions	molar heat capacity at constant pressure [J/K/mol]
300.15 K, x1 = 0.7015	252.48
300.15 K, x1 = 0.8023	251.41
300.15 K, x1 = 0.9139	250.21
300.15 K, x1 = 0.9609	249.66
301.14 K, x1 = 0.0061	225.7
301.14 K, x1 = 0.0494	236.34
301.14 K, x1 = 0.1	242.42
301.14 K, x1 = 0.1999	248.44
301.14 K, x1 = 0.2993	251.7
301.14 K, x1 = 0.4051	253.31
301.14 K, x1 = 0.4986	253.99
301.14 K, x1 = 0.5981	254.13
301.14 K, x1 = 0.7015	253.67
301.14 K, x1 = 0.8023	252.61
301.14 K, x1 = 0.9139	251.4
301.14 K, x1 = 0.9609	250.8
301.16 K, x1 = 0.0249	230.74
301.58 K, x1 = 0.1547	246.46
302.14 K, x1 = 0.0061	226.13
302.14 K, x1 = 0.0249	231.02
302.14 K, x1 = 0.0494	236.64
302.14 K, x1 = 0.1	243.03
302.14 K, x1 = 0.1547	246.89
302.14 K, x1 = 0.1999	249.24
302.14 K, x1 = 0.2993	252.65
302.14 K, x1 = 0.4051	254.36
302.14 K, x1 = 0.4986	255.15
302.14 K, x1 = 0.5981	255.29
302.14 K, x1 = 0.7015	254.9
302.14 K, x1 = 0.8023	253.83
302.14 K, x1 = 0.9139	252.62
302.14 K, x1 = 0.9609	251.98
303.15 K, x1 = 0.0061	226.42
303.15 K, x1 = 0.0249	231.23
303.15 K, x1 = 0.0494	236.93
303.15 K, x1 = 0.1	243.44
303.15 K, x1 = 0.1547	247.5
303.15 K, x1 = 0.1999	249.92
303.15 K, x1 = 0.2993	253.53
303.15 K, x1 = 0.4051	255.32
303.15 K, x1 = 0.4986	256.2
303.15 K, x1 = 0.5981	256.41
303.15 K, x1 = 0.7015	256.05
303.15 K, x1 = 0.8023	255
303.15 K, x1 = 0.9139	254.11
303.15 K, x1 = 0.9609	253.07
304.14 K, x1 = 0.0061	226.83
304.14 K, x1 = 0.0494	237.28
304.14 K, x1 = 0.1	243.93
304.14 K, x1 = 0.1547	248.12
304.14 K, x1 = 0.1999	250.66
304.14 K, x1 = 0.4986	257.22
304.14 K, x1 = 0.8023	256.13
304.14 K, x1 = 0.9139	254.91
304.14 K, x1 = 0.9609	254.18
304.16 K, x1 = 0.0249	231.5
304.16 K, x1 = 0.2993	254.39
304.16 K, x1 = 0.4051	256.27
304.16 K, x1 = 0.5981	257.54
304.16 K, x1 = 0.7015	257.2
305.14 K, x1 = 0.0061	227.18
305.14 K, x1 = 0.0249	231.73
305.14 K, x1 = 0.0494	237.51
305.14 K, x1 = 0.1	244.44
305.14 K, x1 = 0.1547	248.76
305.14 K, x1 = 0.1999	251.35
305.14 K, x1 = 0.2993	255.22
305.14 K, x1 = 0.4051	257.25
305.14 K, x1 = 0.4986	258.3
305.14 K, x1 = 0.5981	258.63
305.14 K, x1 = 0.7015	258.36
305.14 K, x1 = 0.8023	257.38
305.14 K, x1 = 0.9139	256.1
305.14 K, x1 = 0.9609	255.35
306.15 K, x1 = 0.0061	227.53
306.15 K, x1 = 0.0249	231.92
306.15 K, x1 = 0.0494	237.81
306.15 K, x1 = 0.1	244.85
306.15 K, x1 = 0.1547	249.34
306.15 K, x1 = 0.1999	252.03
306.15 K, x1 = 0.2993	256.04
306.15 K, x1 = 0.4051	258.23
306.15 K, x1 = 0.4986	259.33
306.15 K, x1 = 0.5981	259.69
306.15 K, x1 = 0.7015	259.47
306.15 K, x1 = 0.8023	258.63
306.15 K, x1 = 0.9139	257.22
306.15 K, x1 = 0.9609	256.43
307.14 K, x1 = 0.0061	227.97
307.16 K, x1 = 0.0249	232.13
307.16 K, x1 = 0.0494	238.05
307.16 K, x1 = 0.1	245.3
307.16 K, x1 = 0.1547	249.89
307.16 K, x1 = 0.1999	252.7
307.16 K, x1 = 0.2993	256.85
307.16 K, x1 = 0.4051	259.16
307.16 K, x1 = 0.4986	260.39
307.16 K, x1 = 0.5981	260.8
307.16 K, x1 = 0.7015	260.58
307.16 K, x1 = 0.8023	259.83
307.16 K, x1 = 0.9139	258.36
307.16 K, x1 = 0.9609	257.53
308.14 K, x1 = 0.0061	228.36
308.14 K, x1 = 0.0249	232.33
308.14 K, x1 = 0.0494	238.3
308.14 K, x1 = 0.1	245.7
308.14 K, x1 = 0.2993	257.61
308.14 K, x1 = 0.4051	260.05
308.14 K, x1 = 0.4986	261.33
308.14 K, x1 = 0.5981	261.79
308.14 K, x1 = 0.7015	261.67
308.14 K, x1 = 0.8023	260.9
308.14 K, x1 = 0.9139	259.4
308.14 K, x1 = 0.9609	258.61
308.16 K, x1 = 0.1547	250.43
308.16 K, x1 = 0.1999	253.31
309.15 K, x1 = 0.0061	228.7
309.15 K, x1 = 0.0249	232.53
309.15 K, x1 = 0.0494	238.53
309.15 K, x1 = 0.1	246.14
309.15 K, x1 = 0.1547	250.99
309.15 K, x1 = 0.1999	253.95
309.15 K, x1 = 0.2993	258.43
309.15 K, x1 = 0.4051	260.95

— the NIST ThermoML archive (doi:10.1016/j.jct.2008.10.010)
